The values below come from ChEMBL document CHEMBL5728082, “Aryl, heteroaryl, and heterocyclic compounds for treatment of medical disorders” (2020).

The target in the experiment is Complement factor D (Homo sapiens, UniProt P00746). In words: Inhibition Assay: Human Factor D (purified from human serum, Complement Technology, Inc.) at 80 nM final concentration was incubated with test compound at various concentrations for 5 minutes at room temperature in 50 mM Tris, 1M NaCl, pH 7.5. A synthetic substrate Z-L-Lys-SBzl and DTNB (Ellman's reagent) are added to final concentrations of 100 Î¼M each. […] IC50 values are calculated by nonlinear regression of complement Factor D reaction rates as a function of test compound concentration.
Sequence of Complement factor D (P00746 whole entry): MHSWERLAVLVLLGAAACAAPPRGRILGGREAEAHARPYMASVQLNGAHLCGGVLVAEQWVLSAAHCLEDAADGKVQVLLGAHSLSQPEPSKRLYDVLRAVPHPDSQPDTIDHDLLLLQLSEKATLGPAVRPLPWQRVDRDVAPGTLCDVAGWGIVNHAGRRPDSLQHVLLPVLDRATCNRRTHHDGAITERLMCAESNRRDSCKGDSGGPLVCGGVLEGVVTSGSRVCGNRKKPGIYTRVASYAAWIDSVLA

With `CC(=O)c1nn(CC(=O)N2[C@H](C(=O)N[C@H](C)[C@H]3CC3(Cl)Cl)C[C@@]3(C)C[C@@H]23)c2ccc(-c3cnc(C)nc3)cc12`, the IC50 is below 1000 nM.
